Values joined by “and” are separate entries in the source; they are usually repeats but may differ in a detail not shown here. Equal values may be shown once.
How the values were obtained:
[1] = test system: hospitalized men with COVID-19; assay: Randomized controlled pilot trial: clinical status and clinical outcomes, progesterone + SOC vs SOC alone; assay type: in vivo, human
[2] = Randomized controlled pilot trial: serious adverse events and safety; assay type: in vivo, human
Description: Death, serious adverse events (SAE's), and grade 3 and 4 adverse events (AEs) are will be assessed and reported throughout the study.
Study patients were assessed daily for 15 days or until discharge, whichever came first. Discharged patients participated in phone or video study visits on days 7 and 15. Clinical assessment performed daily during hospitalization included evaluation of clinical status with daily vital signs, oxygen supplementation type and amount, need for mechanical ventilation, adverse events, and concomitant medications. WBCs, hemoglobin, platelets, electrolytes, BUN, creatinine, liver transaminases, and inflammatory markers, if obtained as part of SOC, were monitored on days 1 through 5, 7, and 15 while patients were hospitalized. […] Self-reported race and ethnicity, obtained from medical records, were collected as demographic information to assess possible differences in disease severity or treatment response. Serious adverse events and grade 3 and 4 adverse events as described in the Division of AIDS Table for Grading the Severity of Adult and Pediatric Adverse Events were recorded.

[3] = 100 mg sc twice daily 5 days + SOC, n = 18
[4] = 100 mg sc twice daily 5 days + SOC, preliminary analysis N = 17
[5] = 7-point ordinal scale, preliminary analysis N = 17, P 0.003 vs SOC
[6] = 7-point ordinal scale, preliminary analysis N = 17, P <0.001 vs SOC
[7] = seven-point ordinal scale, from baseline, n = 18
[8] = Control Group After Progesterone n = 9, SAEs after receiving progesterone (crossover)

CC(=O)[C@H]1CC[C@H]2[C@@H]3CCC4=CC(=O)CC[C@]4(C)[C@H]3CC[C@]12C [Progesterone, progesterone]
Status on day 7: 1: Death [1, 3]: 1 (5.6) No. (%) | Status on day 7: 2: Hospitalized; on invasive mechanical ventilation or ECMO [1, 3]: 0 (0.0) No. (%) | Status on day 7: 3: Hospitalized; on high-flow nasal cannula [1, 3]: 2 (11.1) No. (%) | Status on day 7: 4: Hospitalized; requiring supplemental oxygen (not HFNC) [1, 3]: 2 (11.1) No. (%) | Status on day 7: 5: Hospitalized; not requiring supplemental oxygen [1, 3]: 4 (22.2) No. (%) | Status on day 7: 6: Not hospitalized; limitations on activities [1, 3]: 7 (38.9) No. (%) | Status on day 7: 7: Not hospitalized; no limitations on activities [1, 3]: 2 (11.1) No. (%) | Status on day 15: 1: Death [1, 3]: 1 (5.6) No. (%) | Status on day 15: 2: Hospitalized; on invasive mechanical ventilation or ECMO [1, 3]: 0 (0.0) No. (%) | Status on day 15: 3: Hospitalized; on high-flow nasal cannula [1, 3]: 0 (0.0) No. (%) | Status on day 15: 4: Hospitalized; requiring supplemental oxygen (not HFNC) [1, 3]: 1 (5.6) No. (%) | Status on day 15: 5: Hospitalized; not requiring supplemental oxygen [1, 3]: 1 (5.6) No. (%) | Status on day 15: 6: Not hospitalized; limitations on activities [1, 3]: 8 (44.4) No. (%) | Status on day 15: 7: Not hospitalized; no limitations on activities [1, 3]: 7 (38.9) No. (%) | Status at Day 7: 2-Hospitalized; on invasive mechanical ventilation or ECMO [1, 4]: 0 (0.0) n (%) | Status at Day 7: 3-Hospitalized; on high flow nasal cannula [1, 4]: 2 (11.8) n (%) | Status at Day 7: 4-Hospitalized; requiring supplemental oxygen (not HFNC) [1, 4]: 2 (11.8) n (%) | Status at Day 7: 5-Hospitalized; not requiring supplemental oxygen [1, 4]: 4 (23.5) n (%) | Status at Day 7: 6-Not hospitalized; limitations on activities [1, 4]: 7 (41.2) n (%) | Status at Day 7: 7-Not hospitalized; no limitations on activities [1, 4]: 2 (11.8) n (%) | Worst Status Prior to Day 7: 2-Hospitalized; on invasive mechanical ventilation or ECMO [1, 4]: 0 (0.0) n (%) | Worst Status Prior to Day 7: 3-Hospitalized; on high flow nasal cannula [1, 4]: 5 (29.4) n (%) | Worst Status Prior to Day 7: 4-Hospitalized; requiring supplemental oxygen (not HFNC) [1, 4]: 11 (64.7) n (%) | Worst Status Prior to Day 7: 5-Hospitalized; not requiring supplemental oxygen [1, 4]: 1 (5.9) n (%) | Change from Baseline at Day 7: 0 [1, 5]: 3 (17.6) n (%) | Change from Baseline at Day 7: +1 [1, 5]: 3 (17.6) n (%) | Change from Baseline at Day 7: +2 [1, 5]: 7 (41.2) n (%) | Change from Baseline at Day 7: +3 [1, 5]: 2 (11.8) n (%) | Change from Baseline at Day 7: −1 [1, 5]: 2 (11.8) n (%) | Change from Baseline at Day 7: −2 [1, 5]: 0 (0.0) n (%) | Change from Worst at Day 7: 0 [1, 6]: 3 (17.6) n (%) | Change from Worst at Day 7: +1 [1, 6]: 4 (23.5) n (%) | Change from Worst at Day 7: +3 [1, 6]: 2 (11.8) n (%) | median hospital length of stay (LOS) ([1]; Progesterone Group n = 18): 7.0 days | median number of days on supplemental oxygen ([1]; Progesterone Group n = 18): 4.5 (IQR, 2.0-6.0) days and 4.5 days | patients remaining hospitalized at study completion ([1]; day 15, progesterone group): one | cumulative probability of clinical improvement (increase of at least one point on the seven-point scale or live discharge) ([1]; first seven study days, Kaplan-Meier estimation, one noncompliant patient excluded, log-rank P=0.014 vs control): 0.76 (95% CI, 0.55-0.93) | fewer days hospitalized than control ([1]; median 7.0 vs 9.5 days): 2.5 days | patients remaining hospitalized by day 7 ([1]; nine of 18 patients): 50% | median improvement more than control group, worst clinical status before day 7 vs status on day 7 ([1]; post hoc sensitivity analysis, 95% CI, 1.0-2.0, P=0.006): two | improvement in clinical status at Day 7 compared to SOC ([1]; preliminary analysis, Wilcoxon rank-sum p=0.003): greater degree of improvement in clinical status at Day 7 | improvement from worst status prior to Day 7 compared to SOC ([1]; preliminary sensitivity analysis, p<0.001): greater improvement over the SOC group | mechanical ventilation initiated ([1]; progesterone group, vs four of 22 control patients): none | overall change in score from baseline to day 7, median better than control group ([1]; sensitivity analysis, last assessment before crossing over imputed as day 7 score, 95% CI, 0.0-2.0, P=0.010): 1.5 points | Change in status on day 7: 0 [1, 7]: 3 (16.7) No. (%) | Change in status on day 7: +1 [1, 7]: 3 (16.7) No. (%) | Change in status on day 7: +2 [1, 7]: 7 (38.9) No. (%) | Change in status on day 7: +3 [1, 7]: 2 (11.1) No. (%) | Change in status on day 7: −1 [1, 7]: 2 (11.1) No. (%) | Change in status on day 7: −2 [1, 7]: 0 (0.0) No. (%) | Change in status on day 7: −3 [1, 7]: 1 (5.6) No. (%) | Change in status on day 15: 0 [1, 7]: 1 (5.6) No. (%) | Change in status on day 15: +1 [1, 7]: 4 (22.2) No. (%) | Change in status on day 15: +2 [1, 7]: 4 (22.2) No. (%) | Change in status on day 15: +3 [1, 7]: 7 (38.9) No. (%) | Change in status on day 15: +4 [1, 7]: 1 (5.6) No. (%) | Change in status on day 15: −1 [1, 7]: 0 (0.0) No. (%) | Change in status on day 15: −2 [1, 7]: 0 (0.0) No. (%) | Change in status on day 15: −3 [1, 7]: 1 (5.6) No. (%) | Change in status on day 7, median (IQR) ([1]; seven-point ordinal scale, from baseline, n = 18, P .024 vs control): 1.5 (0.0 to 2.0) | Change in status on day 15, median (IQR) ([1]; seven-point ordinal scale, from baseline, n = 18, P .150 vs control): 2.0 (1.0 to 3.0) | overall improvement in median clinical status score from baseline to day 7 compared with control ([1]; seven-point ordinal scale, 95% CI, 0.0-2.0, P=0.024): 1.5 points | serious adverse events attributable to progesterone ([2]; 100 mg sc twice daily): no serious adverse events attributable to progesterone | Any SAE or death [2, 8]: 3 (33.3) No. (%) | SAE: Cardiac arrest [2, 8]: 0 (0.0) No. (%) | SAE: Creatinine increased [2, 8]: 0 (0.0) No. (%) | SAE: DVT [2, 8]: 1 (11.1) No. (%) | SAE: Death [2, 8]: 0 (0.0) No. (%) | SAE: Hypoperfusion [2, 8]: 2 (22.2) No. (%) | SAE: Hypoxia [2, 8]: 3 (33.3) No. (%) | SAE: Lymphocyte count decreased [2, 8]: 0 (0.0) No. (%) | SAE: Pulmonary embolism [2, 8]: 0 (0.0) No. (%) | Any SAE or death ([2]; Progesterone Group n = 18): 2 (11.1) No. (%) | SAE: Cardiac arrest ([2]; Progesterone Group n = 18): 0 (0.0) No. (%) | SAE: Creatinine increased ([2]; Progesterone Group n = 18): 0 (0.0) No. (%) | SAE: DVT ([2]; Progesterone Group n = 18): 1 (5.6) No. (%) | SAE: Death ([2]; Progesterone Group n = 18): 1 (5.6) No. (%) | SAE: Hypoperfusion ([2]; Progesterone Group n = 18): 0 (0.0) No. (%) | SAE: Hypoxia ([2]; Progesterone Group n = 18): 0 (0.0) No. (%) | SAE: Lymphocyte count decreased ([2]; Progesterone Group n = 18): 0 (0.0) No. (%) | SAE: Pulmonary embolism ([2]; Progesterone Group n = 18): 1 (5.6) No. (%) | risk of thromboembolism ([2]; all patients on prophylactic-dose anticoagulation): not associated with any significant increase in the risk of thromboembolism | tolerability of high serum levels ([2]; levels as high as 288 ng/mL): tolerated well and not associated with any adverse events | deaths during the total 15-day surveillance period ([2]; progesterone group, not attributable to progesterone): one | patients with thromboembolic events ([2]; progesterone group, two thromboembolic events in one patient): 5.6%

From patent US20220072008A1 (CEDARS-SINAI MEDICAL CENTER, priority 2020, published 2022)
